Results as given in PubChem BioAssay (NCI).
Several values for one entry are separate records, joined by “and”; a condition that tells them apart may be missing. Equal entries are not always repeated.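 Results reflect a 48-hour exposure of cells in 96-well plates to compound at five concentrations. At the GI50, growth is halved. TGI is the concentration that stops growth completely.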

Tests used:
Experiment in all cases: inhibition of tumour cell growth, NCI panel, 48 h
[1] = test system: HOP-62 NSCLC
[2] = test system: HCT-15 colon
[3] = test system: IGROV1 ovarian
[4] = test system: 786-0 renal
[5] = test system: K-562 leukemia
[6] = test system: SF-539 CNS
[7] = test system: SW-620 colon
[8] = test system: OVCAR-3 ovarian
[9] = test system: NCI-H522 lung
[10] = test system: MDA-MB-231 breast

Row | Compound | TGI [1] | TGI [2] [µM] | TGI [3] | TGI [4] | TGI [5] | TGI [6] | TGI [7] | TGI [8] | GI50 [9] [µM] | TGI [9] | GI50 [1] [µM] | GI50 [2] [µM] | GI50 [10] [µM] | TGI [10] [µM] | GI50 [3] [µM] | GI50 [4] [µM] | GI50 [6] [µM] | GI50 [7] [µM] | GI50 [8] [µM] | GI50 [5] [µM]
1 | CCOC(=O)C1=C(C)N(Cc2ccccc2)C(=O)C1CC#N (configuration not stated) | > 100 µM | > 100 | > 100 µM | > 100 µM | > 100 µM | > 100 µM | > 100 µM | > 100 µM |  |  |  |  |  |  |  |  |  |  |  | 
2 | CC(C)(CCN=C(N)Nc1ccccn1)c1ccc(C(F)(F)F)cc1 | 30.2 µM | 29.2 | 26.2 µM | 28.2 µM |  | 29.4 µM | 34 µM | 29.5 µM | 14.5 | 30.8 µM | 15.7 | 14.4 | 14.9 | 29.8 | 12 | 13.3 | 15.3 | 16.1 | 13.7 | 
3 | C=C(C)C1CC=C(C)CC1 (configuration not stated) | > 100 µM and 1630 µM | 1620 | > 100 µM and 1830 µM | > 100 µM and 1620 µM | > 100 µM and 1720 µM | > 100 µM and 1690 µM | > 100 µM and 1590 µM | > 100 µM and 1590 µM | > 100 | > 100 µM and 1710 µM | > 100 |  |  |  | > 100 | > 100 | > 100 | > 100 | > 100 | > 100
4 | COC(=O)NC(=Nc1ccc(Oc2ccccc2)cc1NC=O)NC(=O)OC | > 100 µM |  | > 100 µM | > 100 µM | > 100 µM | 2.49 µM | > 100 µM |  |  | 0.449 µM |  |  |  |  |  |  |  |  |  | 
5 | COc1ccc2c(c1)C1OCCNC1CC2 (configuration not stated) | > 100 µM | > 100 | > 100 µM | > 100 µM | > 100 µM | > 100 µM | > 100 µM |  |  | > 100 µM |  |  |  | > 100 |  |  |  |  |  | 
6 | O=S(=O)(c1ccc(Br)cc1)N1CCN(S(=O)(=O)c2ccc(Br)cc2)CC1 | > 100 µM | > 100 | > 100 µM | > 100 µM | > 100 µM |  | > 100 µM | > 100 µM |  | > 100 µM |  |  |  | > 100 |  |  |  |  |  | 
7 | O=C(CC1(O)C(=O)Nc2ccccc21)c1ccc(F)cc1 (configuration not stated) |  | > 100 | > 100 µM | > 100 µM | > 100 µM | > 100 µM | > 100 µM | > 100 µM |  | > 100 µM |  |  |  |  |  |  |  |  |  | 
8 | C1COCCOCCOCCOCCOCCO1.[Cl][Sn]([Cl])([c]1ccccc1)[c]1ccccc1 | 35 µM | 13.5 | 23.7 µM | 5.51 µM | 10.2 µM | 8.53 µM | 3.28 µM | 15.5 µM | 0.766 | 2.05 µM | 20.3 | 4.14 |  |  | 11.2 | 2.41 | 2.94 | 1.65 | 4.88 | 2.44
9 | C/C=C(/CCC1NCCC2c3ccccc3NC12)[Si](C)(C)C (configuration not stated) | 28.6 µM | 24.9 | 25.6 µM | 23.7 µM | 7.7 µM | 29.5 µM | 9.68 µM | 24 µM |  | 30.2 µM |  |  |  |  |  |  |  |  |  | 
10 | CSc1nc2c(nc(N)n2C2OC(COC(C)=O)C(OC(C)=O)C(OC(C)=O)C2OC(C)=O)c(=O)n1C (configuration not stated) | > 100 µM | > 100 | > 100 µM | > 100 µM | > 100 µM | > 100 µM | > 100 µM | > 100 µM |  |  |  |  |  |  |  |  |  |  |  | 
11 | CSCC[C@H](NC(=O)[C@H](CC(C)C)NC(=O)[C@@H](Cc1ccccc1)NC(=O)CNC(=O)[C@@H](NC(=O)[C@H](C)NC(=O)[C@H](Cc1c[nH]c2ccccc12)NC(=O)[C@H](CCC(N)=O)NC(=O)[C@H](N)CC(N)=O)C(C)C)C(N)=O | > 12.5 µM | > 12.5 | > 12.5 µM | > 12.5 µM | > 12.5 µM | > 12.5 µM | > 12.5 µM | > 12.5 µM |  |  |  |  |  | > 12.5 |  |  |  |  |  | 
12 | CC(=O)[CH-]C(=O)c1ccccc1.CC(=O)[CH-]C(=O)c1ccccc1.CC[C@H](/C=C/C(C)[C@H]1CCC2[C@@H]3CC=C4C[C@@H]([O-])CC[C@]4(C)C3CC[C@@]21C)C(C)C.CC[O-].[Ti+4] (some centres not stated) | > 100 µM | > 100 | > 100 µM | > 100 µM | > 100 µM | > 100 µM | > 100 µM | > 100 µM | 44.8 | > 100 µM | > 100 | > 100 |  |  | > 100 | > 100 | > 100 | > 100 | > 100 | > 100
13 | Cn1c(=O)c2ccc(-c3ccc(Br)cc3)nc2n(C)c1=O | > 100 µM | > 100 | > 100 µM | > 100 µM | > 100 µM | > 100 µM | > 100 µM | > 100 µM |  | > 100 µM |  |  |  |  |  |  |  |  |  | 
14 | COc1ccc(-c2nc(Nc3ccc(-c4nc5ccccc5[nH]4)cc3)nc(N3CCOCC3)n2)cc1 | 5.3 µM | 4.78 |  | 3.23 µM |  | 3.72 µM | 4.8 µM |  | 2.36 | 5.85 µM | 2.11 | 1.67 | 1.63 | 4.76 |  | 1.44 | 1.63 | 2.19 |  | 
15 | CC(=O)[CH-]C(=O)c1ccccc1.CC(=O)[CH-]C(=O)c1ccccc1.CC1(C)OCC(C2OC3OC(C)(C)OC3C2[O-])O1.CC1(C)OCC(C2OC3OC(C)(C)OC3C2[O-])O1.[Ti+4] (configuration not stated) | 36.2 µM | 46.5 | 48.8 µM | 27.3 µM | 71.4 µM | 28 µM | 29.7 µM |  |  |  | 17.9 | 15.4 |  |  | 21.6 | 11.8 | 13.6 | 10.7 |  | 14.2
16 | COc1cccc(NC(=O)C(C)(C)C)c1SSc1c(NC(=O)C(C)(C)C)cccc1OC | > 100 µM | 44.4 | > 100 µM | 53.1 µM | > 82.5 µM | 45.5 µM | 33.1 µM | > 100 µM |  | 27.2 µM |  |  |  |  |  |  |  |  |  | 
17 | O=c1c2c(c3ccccc3n1-c1ccccc1)NC(=S)NC2c1ccc(Cl)cc1 (configuration not stated) | 56.3 µM | 26.8 | 27.2 µM | 24.4 µM | > 100 µM | 42.6 µM | 49.9 µM | 15.6 µM |  |  | 4.83 | 2.1 | 3.67 | 37.6 | 4.57 | 3.94 | 2.37 | 6.97 | 2.86 | 4.04
18 | Cn1cc(-c2csc(-c3cn(CCCCN4CCCCC4)c4ccc(F)cc34)n2)c2cccnc21 | 31.1 µM | 3.06 |  | 3.02 µM |  |  | 3.44 µM | 3.17 µM |  |  | 14 | 1.7 |  |  |  | 1.65 |  | 1.83 | 1.77 | 
